Numbers after ± are expanded uncertainties.
Test: xn = mol fraction of the nth substance listed
Settings: Liquid

CCOS(=O)(=O)[O-].CCn1cc[n+](C)c1 [1-ethyl-3-methylimidazolium ethyl sulfate] + CO
mass density [kg/m3]
Settings	100 kPa	2500 kPa	5000 kPa	10000 kPa	15000 kPa	20000 kPa	25000 kPa	30000 kPa	35000 kPa
293.15 K, x1 = 0.04781	–	–	–	–	–	–	–	907.55 ± 1.1	910.71 ± 1.1
293.15 K, x1 = 0.1026	–	–	–	–	–	–	–	979.27 ± 0.54	982.13 ± 0.55
293.15 K, x1 = 0.1977	–	–	–	–	–	–	–	1060.75 ± 0.81	1063.26 ± 0.89
293.15 K, x1 = 0.2432	–	–	–	–	–	–	–	1088.79 ± 1	1091.21 ± 1.1
293.15 K, x1 = 0.3026	–	–	–	–	–	–	–	1119.01 ± 1.3	1121.32 ± 1.5
293.15 K, x1 = 0.3887	–	–	–	–	–	–	–	1151.75 ± 1.6	1153.96 ± 1.8
293.15 K, x1 = 0.485	–	–	–	–	–	–	–	1179.09 ± 1.9	1181.21 ± 2.1
293.15 K, x1 = 0.589	–	–	–	–	–	–	–	1201.26 ± 2.1	1203.3 ± 2.3
293.15 K, x1 = 0.7289	–	–	–	–	–	–	1221.94 ± 2	1223.92 ± 2.3	1225.88 ± 2.6
293.15 K, x1 = 0.8521	–	–	–	–	–	–	1236.51 ± 2.1	1238.43 ± 2.4	1240.37 ± 2.7
293.15 K, x1 = 0.9397	–	–	–	–	–	–	1245.42 ± 2.2	1247.34 ± 2.5	1249.28 ± 2.8
298.15 K, x1 = 0.04781	881.9 ± 0.59	883.82 ± 0.63	885.81 ± 0.67	889.63 ± 0.76	893.33 ± 0.84	896.87 ± 0.92	900.3 ± 1	903.63 ± 1.1	906.81 ± 1.2
298.15 K, x1 = 0.1026	956.23 ± 0.49	957.85 ± 0.5	959.6 ± 0.51	962.97 ± 0.53	966.22 ± 0.54	969.37 ± 0.55	972.43 ± 0.56	975.41 ± 0.57	978.3 ± 0.57
298.15 K, x1 = 0.1977	1040.54 ± 0.5	1041.91 ± 0.52	1043.39 ± 0.53	1046.26 ± 0.57	1049.05 ± 0.61	1051.78 ± 0.66	1054.44 ± 0.72	1057.05 ± 0.79	1059.58 ± 0.86
298.15 K, x1 = 0.2432	1069.25 ± 0.53	1070.58 ± 0.56	1071.99 ± 0.58	1074.73 ± 0.65	1077.43 ± 0.72	1080.03 ± 0.8	1082.59 ± 0.9	1085.11 ± 0.99	1087.54 ± 1.1
298.15 K, x1 = 0.3026	1100.31 ± 0.57	1101.59 ± 0.61	1102.92 ± 0.66	1105.51 ± 0.75	1108.07 ± 0.86	1110.55 ± 0.98	1112.96 ± 1.1	1115.37 ± 1.3	1117.69 ± 1.4
298.15 K, x1 = 0.3887	1134.01 ± 0.63	1135.21 ± 0.68	1136.46 ± 0.74	1138.92 ± 0.87	1141.32 ± 1	1143.68 ± 1.2	1145.98 ± 1.4	1148.26 ± 1.6	1150.46 ± 1.8
298.15 K, x1 = 0.485	1162.03 ± 0.67	1163.15 ± 0.74	1164.36 ± 0.82	1166.69 ± 0.98	1168.99 ± 1.2	1171.24 ± 1.4	1173.44 ± 1.6	1175.62 ± 1.8	1177.74 ± 2.1
298.15 K, x1 = 0.589	1184.83 ± 0.71	1185.86 ± 0.79	1187.01 ± 0.88	1189.25 ± 1.1	1191.45 ± 1.3	1193.61 ± 1.6	1195.76 ± 1.8	1197.87 ± 2	1199.91 ± 2.3
298.15 K, x1 = 0.7289	1207.95 ± 0.75	1208.92 ± 0.84	1210.02 ± 0.94	1212.17 ± 1.2	1214.29 ± 1.4	1216.37 ± 1.7	1218.42 ± 2	1220.46 ± 2.2	1222.43 ± 2.5
298.15 K, x1 = 0.8521	1222.76 ± 0.78	1223.17 ± 0.88	1224.62 ± 0.99	1226.79 ± 1.3	1228.88 ± 1.5	1230.93 ± 1.8	1232.93 ± 2.1	1234.93 ± 2.4	1236.86 ± 2.7
298.15 K, x1 = 0.9397	1231.87 ± 0.8	1232.94 ± 0.9	1234.01 ± 1	1236.07 ± 1.3	1238.12 ± 1.6	1240.12 ± 1.9	1242.11 ± 2.2	1244.08 ± 2.5	1245.99 ± 2.8
303.15 K, x1 = 0.04781	877.37 ± 0.59	879.39 ± 0.64	881.43 ± 0.68	885.44 ± 0.77	890.01 ± 0.86	–	–	–	–
303.15 K, x1 = 0.1026	951.86 ± 0.5	953.61 ± 0.51	955.38 ± 0.52	958.89 ± 0.54	962.19 ± 0.56	–	–	–	–
303.15 K, x1 = 0.1977	1036.37 ± 0.5	1037.84 ± 0.51	1039.36 ± 0.53	1042.38 ± 0.56	1045.21 ± 0.6	–	–	–	–
303.15 K, x1 = 0.2432	1065.2 ± 0.53	1066.61 ± 0.55	1068.04 ± 0.58	1070.92 ± 0.64	1073.64 ± 0.71	–	–	–	–
303.15 K, x1 = 0.3026	1096.34 ± 0.57	1097.65 ± 0.61	1099 ± 0.65	1101.75 ± 0.74	1104.31 ± 0.84	–	–	–	–
303.15 K, x1 = 0.3887	1130.14 ± 0.62	1131.4 ± 0.67	1132.67 ± 0.73	1135.24 ± 0.86	–	–	–	–	–
303.15 K, x1 = 0.485	1158.24 ± 0.67	1159.4 ± 0.73	1160.61 ± 0.81	1163.06 ± 0.97	–	–	–	–	–
303.15 K, x1 = 0.589	1181.07 ± 0.7	1182.15 ± 0.78	1183.33 ± 0.87	1185.69 ± 1.1	–	–	–	–	–
303.15 K, x1 = 0.7289	1204.24 ± 0.74	1205.29 ± 0.83	1206.4 ± 0.93	1208.67 ± 1.2	–	–	–	–	–
303.15 K, x1 = 0.8521	1219.11 ± 0.77	1220.12 ± 0.87	1221.21 ± 0.98	1223.41 ± 1.2	–	–	–	–	–
303.15 K, x1 = 0.9397	1228.28 ± 0.79	1229.37 ± 0.89	1230.44 ± 1	1232.62 ± 1.3	–	–	–	–	–
